Measured values as given in patent US8466291B2, “1,5-dideoxy-1,5-imino-D-glucitol compounds” (Academia Sinica, priority 2008, dated 2013).

Columns and labels:
[1] = biological target: Bacteroids fragilis O-GlcNAcase (Bacteroides fragilis, UniProt Q5L8V6); test: Michaelis-Menten/Lineweaver-Burk kinetic inhibition of O-GlcNAcase with 4MU-NAG substrate; format: biochemical; details: for Selectivity (KI O-GlcNAcase/KI HEX): Bacteroids fragilis O-GlcNAcase over human HEX B, Table 1
Protocol: Bacteroids fragilis O-GlcNAcase, which is highly homologous to human O-GlcNAcase, was prepared as follows. Based on the genome sequence of B. fragilis (NCTC 9343) as disclosed in GenBank accession no. CR626927 (Oct. 23, 2008), a DNA fragment encoding the B. fragilis O-GlcNAcse was amplified via polymerase chain reaction (PCR), using the primers of: 5′-[…]-3′ (SEQ ID NO:1) (forward primer) and 5′-[…]-3′ (SEQ ID NO:2) (reverse primer). The PCR product was cloned into pGEM-T Easy vector (Promega) via cloning sites Nde1 and Xho1 and then subcloned into pET21b vector to produce expression plasmid pOGA, which encodes a fusion protein including O-GlcNAcase and a His6 tag at the C-terminus
Plasmid pOGA was transformed into E. coli BL21 (DE3) cells and a positive transformant was cultured in Luria-Bertani (LB) medium with ampicillin (100 μg/mL) overnight. The E. coli culture, transferred to fresh LB medium, was incubated at 37° C. and, when A600 of the culture reached 0.6, isopropyl-β-D-thiogalactopyranoside (final conc: 250 μM) was added to induce expression of O-GlcNAcse. The induced cells were further cultured at 16° C. overnight, harvested, and disrupted to produce a cell lysate. Upon centrifugation, the supernatant thus obtained was loaded onto a nickel-affinity column. After elution, a fraction containing O-GlcNAcse was collected and the enzyme contained therein was further purified by gel filtration using a Superdex 6 column. See Dennis et al., Nat Struct Mol Biol 2006, 13: 365-71. The purified protein was concentrated using a 10 kDa-cutoff concentrator and dialyzed against 20 mM HEPES (pH 7.5).
The reaction conditions for each enzyme are shown below:
O-GlcNAcase: reaction mixture (0.5 nM O-GlcNAcase (200 μL) in 50 mM citric acid, 100 mM NaCl, 0.1% BSA, 0.05-1.5 mM substrate, pH 4.25) was incubated at 30° C. for 25 minutes. The enzyme activity at different time points was determined by measuring the levels of the fluorescent signals (excitation wavelength: 360 nm; emission wavelength: 460 nm) released from 4-methylumbelliferone, a product of the enzyme reaction.
(§1) In these reactions, the substrate concentrations were three to five fold of the concentration used for determining KM (absent compounds) and the ratio between the enzyme and the compound was 0.1-0.5 nM to 0.3 nM-200 uM. The data thus obtained were analyzed by the Lineweaver-Burk plot. The K1 values were determined by the double reciprocal plot (1/V vs. 1/[S]). More specifically, the Km values for each enzyme in the presence of one of the test compounds first determined and these values were further plotted in view of the concentrations of the compound. K1 was determined by calculating the negative value of the resulting x-intercept. The selectivity of each compound was calculated by the formula: K1 O-GlcNAcase/K1 Hex B.

[2] = biological target: T1, Human HEX B (Homo sapiens, UniProt P07686); test: Michaelis-Menten/Lineweaver-Burk kinetic inhibition of Hex B with 4MU-NAG substrate; format: biochemical
T1 construct: Hex B protein (isolated from human placenta) was purchased from Sigma Co; purchased Sigma Co; host or cells: human placenta
Protocol: Hex B protein (isolated from human placenta) was purchased from Sigma Co.
Both O-GlcNAcase and Hex B were subjected to Michaelis-Menton kinetic analysis to determine the kinetics of their enzymatic activity in the presence of absence of Compounds 1-5 and Compound ix, using 4-methylumbelliferyl-N-acetyl-β-D-glucosaminide (4MU-NAG; purchased from Sigma Co.) as the substrate (a fluorogenic substrate). The reaction conditions for each enzyme are shown below:
Hex B: reaction mixture (0.1 nM Hex B (200 μL), 50 mM NaH2PO4, 100 mM NaCl, 0.1% BSA, 0.05-1.5 mM substrate, pH 6.5) was incubated at 30° C. for 25 minutes. The reaction was terminated by addition of a 3× quenching buffer (200 mM sodium glycine buffer, pH 10.8). The enzyme activity was determined as described above.
as §1, with “To determine the effects of Compounds 1-5 and Compound ix on the kinetics of both enzymes, the enzyme reactions described above were performed in the presence of each compound at different concentrations. In” for “In”

[3] = biological target: T2, Human O-GlcNAcase (Homo sapiens, UniProt O60502); test: Inhibition of human O-GlcNAcase; format: biochemical; details: Table 2; for Selectivity (KI O-GlcNAcase/KI HEX): Human O-GlcNAcase over human HEX B; for Ki: Human O-GlcNAcase
T2 construct: made in house
T2 sequence (O60502 1-916): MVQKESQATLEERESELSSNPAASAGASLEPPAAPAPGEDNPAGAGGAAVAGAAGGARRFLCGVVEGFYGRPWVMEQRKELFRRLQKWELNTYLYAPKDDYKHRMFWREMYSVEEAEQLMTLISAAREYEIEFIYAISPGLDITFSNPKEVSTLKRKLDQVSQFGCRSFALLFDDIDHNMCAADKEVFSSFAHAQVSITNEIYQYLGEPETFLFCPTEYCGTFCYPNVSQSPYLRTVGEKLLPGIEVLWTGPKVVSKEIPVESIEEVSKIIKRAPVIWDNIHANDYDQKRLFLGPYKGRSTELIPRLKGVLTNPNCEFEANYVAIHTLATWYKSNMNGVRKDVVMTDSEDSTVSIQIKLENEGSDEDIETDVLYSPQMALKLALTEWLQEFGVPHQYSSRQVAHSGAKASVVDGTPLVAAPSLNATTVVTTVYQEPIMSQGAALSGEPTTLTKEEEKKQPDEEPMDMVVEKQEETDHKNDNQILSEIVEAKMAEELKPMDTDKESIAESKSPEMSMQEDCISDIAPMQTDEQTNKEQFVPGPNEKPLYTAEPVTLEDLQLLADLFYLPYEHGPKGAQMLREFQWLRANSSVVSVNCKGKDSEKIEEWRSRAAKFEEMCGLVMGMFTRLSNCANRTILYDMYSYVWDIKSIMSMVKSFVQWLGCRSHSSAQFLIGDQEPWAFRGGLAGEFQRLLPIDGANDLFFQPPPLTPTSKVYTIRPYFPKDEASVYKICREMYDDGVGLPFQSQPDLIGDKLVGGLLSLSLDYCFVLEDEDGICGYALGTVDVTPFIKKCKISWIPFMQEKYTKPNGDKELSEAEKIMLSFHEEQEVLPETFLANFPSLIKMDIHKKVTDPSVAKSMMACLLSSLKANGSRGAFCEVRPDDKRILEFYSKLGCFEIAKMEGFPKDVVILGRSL
Protocol: Human O-GlcNAcase was also prepared and tested according to the procedures described in Gao et al., J. Biol. Chem. 2001, 276, 9838-9845 and Macauley et al., J. Am. Chem. Soc. 2005, 127, 17202-17203.

[4] = biological target: T3, O-GlcNAcase in human 293T cells (Homo sapiens, UniProt O60502); test: Level of protein-associated O-GlcNAc in treated 293T cells by Western blot; format: cell-based; details: 10 μM, 16 hours, Western blot with anti-O-GlcNAc antibody, versus un-treated cells
T3 construct: endogenous in cells; host or cells: 293T cells
T3 sequence (O60502 1-916): T2 sequence (O60502 1-916)
Protocol: Additionally, Compounds 1 and 3 were tested to determine their inhibitory effects on O-GlcNAcase in human 293T cells. The cells were treated with 10 μM Compound 1 or 3 for 16 hours. The level of protein-associated O-GlcNAc moieties in the treated cells was determined by Western blot analysis using an anti-O-GlcNAc antibody. See Macauley et al., J. Biol. Chem. 2005, 280, 25313-25322. Two known O-GlcNAcase inhibitors, PUGNAc (10 μM) and STZ (10 μM), were used as positive controls (Hanover et al., Arch Biochem. Biophys. 1999, 362, 38-45 and Rao et al., EMBO J. 2006, 25, 1569-1578).

[5] = tested on: BV2 cells; test: GM2 ganglioside level in BV2 cells by high performance thin-layer chromatography; format: cell-based, mouse; details: 200 nM, 10 days, HPTLC
Protocol: Glycosphingolipids (e.g., GM2) were extracted from the treated cells with chloroform/methanol and the ganglioside levels were determined by high performance thin-layer chromatography.

Chain of Bacteroids fragilis O-GlcNAcase (Q5L8V6 entry or part of it): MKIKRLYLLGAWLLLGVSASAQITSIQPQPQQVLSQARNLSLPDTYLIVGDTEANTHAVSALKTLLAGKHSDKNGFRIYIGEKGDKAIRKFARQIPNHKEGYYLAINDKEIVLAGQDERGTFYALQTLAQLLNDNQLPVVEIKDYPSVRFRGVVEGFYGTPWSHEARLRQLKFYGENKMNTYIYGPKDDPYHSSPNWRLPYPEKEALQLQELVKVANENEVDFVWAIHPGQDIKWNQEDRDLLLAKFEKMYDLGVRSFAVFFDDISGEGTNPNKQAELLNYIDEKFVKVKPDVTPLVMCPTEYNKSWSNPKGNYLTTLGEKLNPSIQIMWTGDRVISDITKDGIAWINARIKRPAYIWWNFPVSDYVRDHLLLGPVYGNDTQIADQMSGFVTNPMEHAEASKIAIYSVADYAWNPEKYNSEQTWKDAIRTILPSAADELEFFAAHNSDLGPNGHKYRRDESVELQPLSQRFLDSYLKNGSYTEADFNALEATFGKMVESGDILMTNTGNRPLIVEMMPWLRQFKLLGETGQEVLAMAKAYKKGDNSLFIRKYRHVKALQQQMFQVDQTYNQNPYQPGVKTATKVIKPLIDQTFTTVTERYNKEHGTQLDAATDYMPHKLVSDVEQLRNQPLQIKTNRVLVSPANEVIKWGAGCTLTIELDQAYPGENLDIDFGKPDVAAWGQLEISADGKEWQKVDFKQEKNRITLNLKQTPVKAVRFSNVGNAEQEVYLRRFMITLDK
T1 sequence (P07686 315-556 limits assumed): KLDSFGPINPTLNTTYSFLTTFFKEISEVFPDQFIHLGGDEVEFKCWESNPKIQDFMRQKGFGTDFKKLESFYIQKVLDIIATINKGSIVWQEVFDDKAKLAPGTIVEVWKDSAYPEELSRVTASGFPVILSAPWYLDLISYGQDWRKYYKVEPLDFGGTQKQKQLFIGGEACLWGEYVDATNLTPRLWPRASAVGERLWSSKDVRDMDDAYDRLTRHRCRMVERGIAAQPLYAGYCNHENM
T1 sequence (P07686 122-311 limits assumed): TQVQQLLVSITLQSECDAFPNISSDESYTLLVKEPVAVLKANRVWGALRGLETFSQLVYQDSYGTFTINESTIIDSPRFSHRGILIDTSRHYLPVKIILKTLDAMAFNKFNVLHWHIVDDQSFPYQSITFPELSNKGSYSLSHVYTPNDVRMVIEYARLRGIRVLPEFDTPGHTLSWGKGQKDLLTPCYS
T1 sequence (P07686 50-107 partner limits assumed): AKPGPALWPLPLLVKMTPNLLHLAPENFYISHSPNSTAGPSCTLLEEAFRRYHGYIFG

Row | SMILES | Ki [1] | Selectivity (KI O-GlcNAcase/KI HEX) [1] | Ki ([2]; Table 1) | Ki ([2]; Table 2) | Selectivity (KI O-GlcNAcase/KI HEX) [3] | Ki [3] | level of O-GlcNAc moieties in treated cells [4] | GM2 level in treated cells [5]
1 | CC(=O)NC1CN(CCCCCCCN)C(CO)C(O)C1O [Compound 1, N-[1(7-Amino-heptyl)]-2-acetamido-1,2,5-trideoxy-1,5-imino-D-glucitol] | 75.3 ± 9.13 µM | 36,000 | 0.0021 ± 0.00038 µM | 0.0021 ± 0.00038 µM | 51,000 | 108 ± 9.17 µM | not significantly different than that in un-treated cells | –
2 | COc1ccc(CNCCCCCCCN2CC(NC(C)=O)C(O)C(O)C2CO)cc1 (stereo not drawn) [Compound 2] | 72.1 ± 0.88 µM | 60,000 | 0.0012 ± 0.00023 µM | 0.0012 ± 0.00023 µM | 85,000 | 102 ± 6.47 µM | – | –
3 | COc1ccc(CN(CCCCCCCN2CC(NC(C)=O)C(O)C(O)C2CO)Cc2ccc(OC)cc2)cc1 (stereo not drawn) [Compound 3] | 129 ± 2.55 µM | 190,000 | 0.00069 ± 7.7e-05 µM | 0.00069 ± 7.7e-05 µM | 250,000 | 176 ± 2.15 µM | not significantly different than that in un-treated cells | significantly increased
4 | CC(=O)NC1CN(CCCCCCCN=[N+]=[N-])C(CO)C(O)C1O (stereo not drawn) [Compound 4] | 95.7 ± 8.37 µM | 56 | 1.7 ± 0.56 µM | 1.7 ± 0.56 µM | 91 | 155 ± 9.87 µM | – | –
5 | CC(=O)N[C@H]1/C(=N/OC(=O)Nc2ccccc2)O[C@H](CO)[C@@H](O)[C@@H]1O [PUGNAc, reference compound] | – | – | – | – | – | – | notably increased | only modestly increased
6 | CN(N=O)C(=O)N[C@@H]1[C@@H](O)[C@H](O)[C@@H](CO)O[C@@H]1O [STZ, reference compound] | – | – | – | – | – | – | notably increased | –
